Source: patent US20240182873A1, “PRENYLTRANSFERASE AND A […], TISSUE, AND ORGANISM COMPRISING SAME” (YEDA RESEARCH AND DEVELOPMENT CO. LTD., priority 2021, published 2024)

B1: HuPT1: Prenyltransferase from Helichrysum umbraculigerum, gene SEQ ID NO: 1, expressed in yeast microsomes (protein)
chain: MELSLSSSSSSSLPQLHTHPSSSSSSSHYIKKSPFFINKFNNHTKCKFHNSSALRTNFFYTTITKTSSSRFVLNKNPNQFSVKACSQVGSAGSDPALNKVADFKDAFWRFLRPHTIRGTALGSVSLVTRALLENPNLIRWSLLLKAFSGLVALICGNGYIVGINQIYDIGIDKVNKPYLPIAAGDLSVQSAWFLVLAFAMVGVIIVGMNFGPFITSLYSLGLFLGTIYSVPPLRMKRFPVVAFLIIATVRGFLLNFGVYYAVRAALGLTFQWSSAVAFITTFVTLFALVIAITKDLPDVEGDRKFQISTFATKLGVRNIALLGSGLLLINYIGSIVAALYMPQAFRSSLMIPLHTILASCLIYQAWILERANYTQEAIAGYYRFVWNLFYSEYIIFPFI
B2: HuPT3: Prenyltransferase from Helichrysum umbraculigerum, gene SEQ ID NO: 3, expressed in yeast microsomes (protein)
chain: MKSLIIGSFSNKVSCYSPSLPDSSSSLIPTGCYHVSLRTFQRNRAIQAQSSLVRCNIGKFNETLLLSRKRSTKHVACAVSEQPIEPDATNPQSSLPNALDAFYRFSRPHTVIGTALSIVSVSLLAVQKLSDFSPLFFIGVFEAIVAAFFMNIYIVGLNQLSDIEIDKVNKPYLPLASGEYSVQTGIIIVSSFAVMSFWLGWIVGSWPLFWALFISFLLGTAYSINIPMLRWKRFALVAAMCILAVRAIIVQVAFYLHIQTFVYGRLAVFPKPVIFATGFMSFFSVVIALFKDIPDIVGDKIFGIQSFTVRMGQKRVFWICILLLEIAYGVAILVGASSPFLWSRYITVLGHAILGLILWGRAKSTDLESKSAITSFYMFIWQLFYAEYLLIPLVR
B3: HuPTx: Prenyltransferase from Helichrysum umbraculigerum, gene SEQ ID NO: 7, expressed in yeast microsomes (protein)
chain: MASLAIGSLGSPSSRQCSSPVASSSSFAIGSQIASKFLRISKFDKTKNSPLTLQQKHINKSIDQSFFEPLPLHKINKDKFKLYATSTNNPQFDATHDLKTPEVSIINFVDALYRLIRPYTAVVTIVSVVAMSLLTVNSLSDFSPLFFIKVVQALIGGIFMQMYVSGFNQICDIELDKVNKQSLPLAAGELSMKTAIVIASLSAIMSLSIGWFVGSPPLLWCLVWWFIVGTAYSANVLPYLRWKRFPFTAAFCAMTSRALVLPIGYYLHMQNSIPGVSALLSRPILFAVAMLSAFSLSAMFFKDIPDIKGDRMHGIKSLAIKLGEKRVYWISISIIEIAYIAAAFIGATSPISWSKYVTIIGHLGMGLLLWVRARSVDPTNTVAVQSMYMFLIKLVYAEYGLISLVR

Assays:
[1] = system: Helichrysum umbraculigerum PT1 (HuPT1; SEQ ID NO: 1), N-terminal plastid targeting sequence removed; experiment: Steady state kinetic analysis of HuPT1 with olivetolic acid and GPP (yeast microsomes, CBGA production); assay type: biochemical; conditions: varying olivetolic acid (0.5 μM-1.5 mM), constant GPP (1 mM), pH 8.5, 30° C., 15 min, n=3
Protocol: (§1) FIG. 4 includes graphs showing steady state kinetic analysis of Helichrysum umbraculigerum PT1 (HuPT1; SEQ ID NO: 1), HuPT3 (SEQ ID NO: 3) and HuPTx (SEQ ID NO: 7) with olivetolic acid and GPP. The Michaelis-Menten Km value of each enzyme was calculated using varying olivetolic acid (0.5 μM-1.5 mM) and constant GPP (1 mM) concentrations (n=3 technically independent samples; measurements were plotted individually).
(§2) HuPT1 (SEQ ID NO: 1), HuPT2 (SEQ ID NO: 2), HuPT3 (SEQ ID NO: 3), HuPTx (SEQ ID NO: 7) genes from H. umbraculigerum and GOT4 gene from Cannabis sativa were separately cloned into pESC-HIS vector. Microsomal preparations from yeast cells transformed with pESC-HIS vectors were performed as described by Jozwiak et al. (2020). PT enzymatic assay was carried out as described previously for CsGOT4 (Luo et al., 2019).
(§3) Microsomes (2 μl) were dissolved in reaction buffer (50 mM Tris-HCl, 10 mM MgCl2, pH 8.5) and substrate was added [0.5 μM-1.5 mM μM olivetolic acid (Cayman Chemicals), 1 mM geranyl pyrophosphate (GPP, Sigma Aldrich)] to a total volume of 50 μl. Samples were incubated for 15 min at 30° C. Samples were extracted with 100 μl […] followed by vortexing and centrifugation. The organic layer was filtered and analyzed via UPLC-qTOF and Triple Quad (TQ) instruments. […]

[2] = system: Helichrysum umbraculigerum HuPT3 (SEQ ID NO: 3), N-terminal plastid targeting sequence removed; experiment: Steady state kinetic analysis of HuPT3 with olivetolic acid and GPP (yeast microsomes, CBGA production); assay type: biochemical; conditions: varying olivetolic acid (0.5 μM-1.5 mM), constant GPP (1 mM), pH 8.5, 30° C., 15 min, n=3
Protocol: as §1, §2, §3

[3] = system: Cannabis sativa geranylpyrophosphate:olivetolate geranyltransferase 4 (CsGOT4); conditions: Luo et al., 2019; cited from earlier work
[4] = system: Helichrysum umbraculigerum HuPTx (SEQ ID NO: 7), N-terminal plastid targeting sequence removed; experiment: Steady state kinetic analysis of HuPTx with olivetolic acid and GPP (yeast microsomes, CBGA production); assay type: biochemical; conditions: varying olivetolic acid (0.5 μM-1.5 mM), constant GPP (1 mM), pH 8.5, 30° C., 15 min, n=3
Protocol: as §1, §2, §3

[5] = In vitro enzymatic assay with PTs: CBGA production by yeast microsomal fractions; assay type: biochemical; conditions: purified yeast microsomal fraction expressing the PT; OA and GPP as substrates; LC-MS
Description: FIG. 2 includes a graph showing in vitro production of cannabigerolic acid (CBGA). Purified microsomal fraction from yeast cells expressing prenyltransferases (PTs) were used in enzyme assay containing olivetolic acid (OA) and geranylpyrophosphate (GPP). Cannabis sativa geranylpyrophosphate:olivetolate geranyltransferase 4 (CsGOT4) enzyme assay was used as positive control in experiment. Extracted ion chromatograms (EICs) are shown. LC-MS was used for assay products analysis. Standard—STD; Negative control—Empty vector.
as §2
The inventors profiled six tissues (young leaf, old leaf, florets and receptacles of flowers, stems, and roots) from H. umbraculigerum, using UPLC-qTOF, and identified CBGA in all the tissues, excluding roots (FIG. 1). CBGA is the known central precursor to Δ^9-tetrahydrocannabinolic acid (THCA), cannabidiolic acid (CBDA) and several other cannabinoids. It is produced from olivetolic acid (OA) and geranyl pyrophosphate (GPP) by an enzymatic reaction catalyzed by geranylpyrophosphate:olivetolate geranyltransferase 4 (GOT4). To identify genes in H. umbraculigerum associated with GOT4 like activity, the inventors searched for candidate prenyltransferase genes in Helichrysum transcriptome. Four prenyltransferase like genes, namely, HuPT1 (SEQ ID NO: 1), HuPT2 (SEQ ID NO: 2), HuPT3 (SEQ ID NO: 3) and HuPTx (SEQ ID NO: 7) were selected for further characterization based on their differential expression profile in leaves compared to other tissues. All these PTs shared less than 40% homology with CsGOT4 that is known to partake in cannabinoid biosynthesis. […]

Molecule	Km [1] [µM]	Km [2] [µM]	Km [3] [µM]	Km [4] [µM]	production of CBGA (PT activity) [5]
CCCCCc1cc(O)cc(O)c1C(=O)O [olivetolic acid]	19 ± 6.3	110 ± 44.3	6.7 ± 0.3	2 ± 0.8	–
B1	–	–	–	–	clear production of CBGA
B2	–	–	–	–	clear production of CBGA
B3	–	–	–	–	clear production of CBGA
